We go through four molecules from US9388120B2, “Nitrogen and hindered phenol containing dual functional macromolecular antioxidants: synthesis, performances and applications” (Polnox Corporation, priority 2005, dated 2016).

Data set [1] is described as follows: Oxidative induction time (OIT) by DSC in polyol ester based base stock oil. As to conditions: antioxidant at 200 ppm in polyester based base stock; DSC at 200° C., oxygen at 20 ml/min. On the procedure: (§1) Macromolecules V and A were tested for their performance in lubricant oils and polymers. The macromolecules were mixed in oil with stirring at 60° C. for 5-15 mins at 200 ppm in petroleum based Group II base stock and polyol based Group V base stock oils. The performance of these antioxidants were evaluated in lubricant base oil stocks including Group II using the DSC technique for determining their oxidation induction times measured in minutes (OIT) at 200° C. The OITs of the antioxidants having structures V and A were compared with commercial antioxidants [L57: Ciba's Irganox L57, 6PPD: N-hexyl phenyl-1,4-phenylene diamine CAS #793-24-8)].
The summary of performance of antioxidants I, II, V, X, XVIII and A and their comparison with commercial antioxidants L 57 and 6PPD in synthetic polyol ester based oil is shown in Table 1. The macromolecules were mixed in oil with stirring at 60° C. for 5-15 mins at 200 ppm in petroleum based Group II base stock and polyol based Group V base stock oils.

Data set [2] in a line: Oxidative induction time (OIT) by DSC in Group II lubricating base oil. The following applies: 200 ppm; for OIT performance (FIG. 2) compared with commercial antioxidants: GII base oil, DSC at 200° C., versus L57 and 6PPD. On the procedure:
Macromolecule A was mixed with oil at 60° C. for 5-15 minutes at 200 ppm in petroleum based group II base stock oil and polyol based Group V base stock oils. It was tested using differential scanning calorimetry (DSC). Its Oxidative Induction Time (OIT) was also compared with commercially used antioxidants 2,6-di-tert-butyl-phenol, Naugalube APAN (PANA) and Vanlube 81 (DODP).
as §1
On the technique in general: In DSC, transitions show as peaks or steps in heat flow.

A short description of data set [3]: Solubility in Group II lubricant oil base stock. It counts as physicochemical. As to conditions: 10 g in 90 g Group II lubricant oil base stock, stirred 15 mins at 60° C.; industry standard 1-2%. On the procedure:
[drawing 67] 10 g of the antioxidant V was added to 90 g of Group II lubricant oil base stock in a beaker. […] This solubility is much higher than the typical industry standards of 1-2%.

`CC(C)(C)c1cc(CNc2ccc(Nc3ccccc3)cc2)c(O)c(C(C)(C)C)c1` [A]: in data set [1], the “OIT @ 200 ppm” value came to 37 min. Further, the “OIT performance (FIG. 2) compared with commercial antioxidants” value in data set [2] is reported as “superior performance”. In addition, the “protection of lubricating oils against oxidation (OIT, FIG. 1) compared with commercial antioxidants” value in data set [2] (Group II lubricating oil, DSC, versus 2,6-di-tert-butyl-phenol, Naugalube APAN (PANA), Vanlube 81 (DODP)) was “superior”.

On to `CC(C)CC(C)Nc1ccc(Nc2ccccc2)cc1` (centres unmarked) [Antioxidant 6PPD, N-hexyl phenyl-1,4-phenylene diamine, reference compound], for which, in data set [1], the “OIT @ 200 ppm” value was determined as 22 min.

As to `CC(C)CC(C)N(Cc1cc(C(C)(C)C)c(O)c(C(C)(C)C)c1)c1ccc(Nc2ccccc2)cc1` (centres unmarked) [V], the “OIT @ 200 ppm” value in data set [1] is given as 36 min. Further, the “OIT performance (FIG. 2) compared with commercial antioxidants” value in data set [2] is “superior performance”. In data set [3], the “solubility in Group II base stock” value is listed as “homogenous solution”.

As for `Cc1cc(CNc2ccc(Nc3ccccc3)cc2)cc(C(C)(C)C)c1O` [X], the “OIT @ 200 ppm” value in data set [1] is on record as 28 min.
